Literature values as cited in US20140187648A1, “Identifying Subjects in Need of Treatment” (HOWARD FOUNDATION HOLDINGS LTD., priority 2013, published 2014).

Tested on: subjects who exhibit an abnormally low concentration of MP in the central portion of the retina

Molecule	effect on MP (subjects with abnormally low MP in the central portion of the retina)	MP levels outside the central portion of the retina (subjects with abnormally low central MP)	MP levels in the central portion of the retina (subjects with abnormally low central MP, eccentricity 0.25° or less)
CC1=C[C@H](O)CC(C)(C)[C@H]1/C=C/C(C)=C/C=C/C(C)=C/C=C/C=C(C)/C=C/C=C(C)/C=C/C1=C(C)C[C@@H](O)CC1(C)C [lutein, reference compound]	little effect	–	–
meso-zeaxanthin [MZ]	–	little effect	return MP levels in the central portion of the retina substantially to normal
